Experimental data reported in PubChem BioAssay AID1963844 (Molecular Pharmacology Branch, DTP, NCI, 2024).
“And” between values parts separate entries of the source, which are not always exact repeats. Equal values may be shown once.

Test system: 422866-222-R5-J1-PDC complex spheroid viability
Test: Anticancer human tumor 422866-222-R5-J1-PDC patient-derived pancreatic adenocarcinoma cell line growth inhibition [POLQ]
Conditions: for viability, T/C: stronger effect = lower value
Description: Multicellular complex tumor spheroid response to Polymerase (POL) inhibitors (novobiocin, ART-558, RP6685) in combination with a variety of drugs and investigational agents in selected tumor cell lines
The POL inhibitors (novobiocin, ART-558, and RP6685) were evaluated both individually and in combination with standard of care and investigational anticancer small molecules within a complex spheroid model of solid tumors. . Complex spheroids include a stromal component modeled by human endothelial cells (HUVEC) and fibroblasts modeled by human mesenchymal stem cells (MSCs). The concentration ranges selected for each drug and investigational agent were based upon clinically achievable concentrations if the clinical Cmax of the agent was known.
Compounds. The drugs and investigational agents: novobiocin (NSC847541), ART-558 (NSC835418), RP-6685 (NSC848927), peposertib (NSC802822), ceralasertib (NSC780249), elimusertib (NSC800525), camonsertib (NSC841442), AZD-1390 (NSC803789), olaparib (NSC753686), talazoparib (NSC767125), rucaparib (NSC756644), sotorasib (NSC818433), MRTX-1133 (NSC836407), SN-38 (NSC673596), topotecan (NSC609699), epotoside (NSC141540), doxorubicin (NSC123127), gemcitabine (NSC613327), 5-fluorouracil (NSC19893), paclitaxel (NSC125973), vemurafenib (NSC761431), MSA-2 (NSC828583), SN-011 (NSC837082), adavosertib (NSC754352), prexasertib (NSC758257), carboplatin (NSC241240) and oxaliplatin (NSC266046), were obtained from the National Cancer Institute (NCI) Developmental Therapeutics Program Chemical Repository (21). The FDA-approved anticancer drug set is available from the Developmental Therapeutics Program at https://dtp.cancer.gov/organization/dscb/obtaining/. […] The stock solutions were prepared in dimethyl sulfoxide (DMSO, Sigma-Aldrich, St. Louis, MO, cat. D2650), except for the platinum compounds which were prepared in saline (Quality Biological, Gaithersburg, MD, cat. 114-055-101), at 800-fold the tested concentration and stored at -70 degrees C prior to their use. All drugs and investigational agents were tested over a range starting from a high concentration at or near the clinical Cmax and decreasing in half-log increments. If the clinical Cmax for an agent had not been determined, the highest concentration tested was 10 microM, except for SN-38, which was tested at a high concentration of 1 microM.
Cell Culture. All cells were maintained in an incubator at 37 degrees C and 5% CO2 with 95% humidity. The PDC lines were cultured according to standard operating procedures established by the NCI PDMR (https://pdmr.cancer.gov). Table 3 of the manuscript, lists the cell lines along with the number of the three cell types plated to form the mct-spheroids and media for tumor cell growth. After thawing, all PDC lines, except 997537-175-T-J1-PDC and 415267-285-R-J2-PDC, were cultured in Matrigel-coated flasks prepared with a working solution of 1X Ham's F-12 nutrient mix, without supplementation (Thermo Fisher Scientific, cat. 11765054), 100 U/mL penicillin-streptomycin (Thermo Fisher Scientific, cat. 15140122), and 2.5% Matrigel (Corning Inc., Corning, NY, cat. 354248) for the first three passages. The two PDC lines 997537-175-T-J1-PDC and 415267-285-R-J2-PDC were cultured on uncoated flasks. The 857933-349-R-J2-PDC line was cultured in 6C/Colon 1B media containing advanced DMEM/F-12 (Thermo Fisher Scientific, cat. 12634028), 10 mM HEPES (Thermo Fisher Scientific, cat. 15630080), 1X GlutaMAX supplement (Thermo Fisher Scientific, cat. 35050061), 0.1 mg/mL primocin (InvivoGen, San Diego, CA, cat. ant-pm-2), 10% defined fetal bovine serum, heat inactivated (HyClone Laboratories Inc., Logan, UT, cat. SH30070.03HI), 50% L-WRN conditioned media (ATCC, cat. CRL-3276), 1.25 mM N-Acetyl-L-cysteine (Sigma-Aldrich, cat. A9165), 10 mM nicotinamide (Sigma-Aldrich, cat. N0636), 1X B-27 supplement (Thermo Fisher Scientific, cat. 17504044), 1X N-2 supplement (Thermo Fisher Scientific, cat. […]

[1] = curve of first compound, second compound 0.0316 µM
[2] = curve of first compound, second compound 0.1 µM
[3] = curve of first compound, second compound 0.316 µM
[4] = curve of first compound, second compound 1 µM
[5] = curve of first compound, second compound 3.16 µM
[6] = curve of first compound, second compound 10 µM
[7] = second compound 0.0316 µM, first compound 0.0316 µM
[8] = second compound 0.0316 µM, first compound 0.1 µM
[9] = second compound 0.0316 µM, first compound 0.316 µM
[10] = second compound 0.0316 µM, first compound 1 µM
[11] = second compound 0.0316 µM, first compound 3.16 µM
[12] = second compound 0.0316 µM, first compound 10 µM
[13] = second compound 0.1 µM, first compound 0.0316 µM
[14] = second compound 0.1 µM, first compound 0.1 µM
[15] = second compound 0.1 µM, first compound 0.316 µM
[16] = second compound 0.1 µM, first compound 1 µM
[17] = second compound 0.1 µM, first compound 3.16 µM
[18] = second compound 0.1 µM, first compound 10 µM
[19] = second compound 0.316 µM, first compound 0.0316 µM
[20] = second compound 0.316 µM, first compound 0.1 µM
[21] = second compound 0.316 µM, first compound 0.316 µM
[22] = second compound 0.316 µM, first compound 1 µM
[23] = second compound 0.316 µM, first compound 3.16 µM
[24] = second compound 0.316 µM, first compound 10 µM
[25] = second compound 1 µM, first compound 0.0316 µM
[26] = second compound 1 µM, first compound 0.1 µM
[27] = second compound 1 µM, first compound 0.316 µM
[28] = second compound 1 µM, first compound 1 µM
[29] = second compound 1 µM, first compound 3.16 µM
[30] = second compound 1 µM, first compound 10 µM
[31] = second compound 3.16 µM, first compound 0.0316 µM
[32] = second compound 3.16 µM, first compound 0.1 µM
[33] = second compound 3.16 µM, first compound 0.316 µM
[34] = second compound 3.16 µM, first compound 1 µM
[35] = second compound 3.16 µM, first compound 3.16 µM
[36] = second compound 3.16 µM, first compound 10 µM
[37] = second compound 10 µM, first compound 0.0316 µM
[38] = second compound 10 µM, first compound 0.1 µM
[39] = second compound 10 µM, first compound 0.316 µM
[40] = second compound 10 µM, first compound 1 µM
[41] = second compound 10 µM, first compound 3.16 µM
[42] = second compound 10 µM, first compound 10 µM
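Further: spheroids exposed to compounds for one week before readout.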
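Wherever viability, T/C is given: percent of DMSO vehicle wells luminescence so 100% = untreated viability.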

Compound: C=CCn1c(=O)c2cnc(Nc3ccc(N4CCN(C)CC4)cc3)nc2n1-c1cccc(C(C)(C)O)n1
- viability, T/C (compound 0.00316 µM): 86.1% and 96.9% and 101%
- viability, T/C (compound 0.01 µM): 105% and 93% and 107%
- viability, T/C (compound 0.0316 µM): 105% and 93.5% and 83.3%
- viability, T/C (compound 0.1 µM): 85.7% and 91% and 78.1%
- viability, T/C (compound 0.316 µM): 56% and 43.9% and 56.5%
- viability, T/C (compound 1 µM): 36% and 31% and 34.6%
- IC50 (curve of compound): 434 nM and 272 nM and 446 nM

Compound: COc1cccc2c1C(=O)c1c(O)c3c(c(O)c1C2=O)CC(O)(C(=O)CO)CC3OC1CC(N)C(O)C(C)O1 (stereo unspecified) + Nc1ccc(C#CCN(C(=O)Cc2ncc(C(F)(F)F)cc2C(F)(F)F)c2ccc(F)cc2)nn1
- IC50 [1]: 65.9 nM
- IC50 [2]: 118 nM
- IC50 [3]: 67.7 nM
- IC50 [4]: 81 nM
- IC50 [5]: 92.3 nM
- IC50 [6]: 142 nM
- viability, T/C [7]: 60%
- viability, T/C [8]: 44.3%
- viability, T/C [9]: 32.5%
- viability, T/C [10]: 30.2%
- viability, T/C [11]: 34.6%
- viability, T/C [12]: 28.3%
- viability, T/C [13]: 52.7%
- viability, T/C [14]: 54.3%
- viability, T/C [15]: 28.9%
- viability, T/C [16]: 33.3%
- viability, T/C [17]: 29.6%
- viability, T/C [18]: 27.2%
- viability, T/C [19]: 58.4%
- viability, T/C [20]: 45.2%
- viability, T/C [21]: 35.1%
- viability, T/C [22]: 24.8%
- viability, T/C [23]: 28.6%
- viability, T/C [24]: 26.6%
- viability, T/C [25]: 59.2%
- viability, T/C [26]: 47.7%
- viability, T/C [27]: 34.4%
- viability, T/C [28]: 26.4%
- viability, T/C [29]: 28.6%
- viability, T/C [30]: 30.8%
- viability, T/C [31]: 57.7%
- viability, T/C [32]: 49.3%
- viability, T/C [33]: 31.5%
- viability, T/C [34]: 23%
- viability, T/C [35]: 36%
- viability, T/C [36]: 24.5%
- viability, T/C [37]: 54.4%
- viability, T/C [38]: 55.5%
- viability, T/C [39]: 38.7%
- viability, T/C [40]: 22.6%
- viability, T/C [41]: 32.8%
- viability, T/C [42]: 30.5%

Compound: C#Cc1c(F)ccc2cc(O)cc(-c3ncc4c(N5CC6CCC(C5)N6)nc(OCC56CCCN5CC(F)C6)nc4c3F)c12 (stereo unspecified) + COC1C(OC(N)=O)C(O)C(Oc2ccc3c(O)c(NC(=O)c4ccc(O)c(CC=C(C)C)c4)c(=O)oc3c2C)OC1(C)C
- IC50 [1]: 715 nM
- IC50 [2]: 780 nM
- IC50 [3]: 750 nM
- IC50 [4]: 859 nM
- IC50 [5]: 664 nM
- IC50 [6]: 810 nM
- viability, T/C [7]: 95.7%
- viability, T/C [8]: 78.9%
- viability, T/C [9]: 59.6%
- viability, T/C [10]: 46.2%
- viability, T/C [11]: 35.9%
- viability, T/C [12]: 29.8%
- viability, T/C [13]: 92.5%
- viability, T/C [14]: 86.3%
- viability, T/C [15]: 66.5%
- viability, T/C [16]: 46.1%
- viability, T/C [17]: 34.2%
- viability, T/C [18]: 32.8%
- viability, T/C [19]: 99.5%
- viability, T/C [20]: 85.8%
- viability, T/C [21]: 66.2%
- viability, T/C [22]: 45.2%
- viability, T/C [23]: 31.4%
- viability, T/C [24]: 28.8%
- viability, T/C [25]: 106%
- viability, T/C [26]: 102%
- viability, T/C [27]: 73.4%
- viability, T/C [28]: 46.9%
- viability, T/C [29]: 37%
- viability, T/C [30]: 32%
- viability, T/C [31]: 93.3%
- viability, T/C [32]: 93.9%
- viability, T/C [33]: 67.1%
- viability, T/C [34]: 40.9%
- viability, T/C [35]: 36.9%
- viability, T/C [36]: 30.3%
- viability, T/C [37]: 96.1%
- viability, T/C [38]: 86.1%
- viability, T/C [39]: 64.7%
- viability, T/C [40]: 47.6%
- viability, T/C [41]: 33.7%
- viability, T/C [42]: 29.4%
